Where a name gives a salt, the structure may show the parent alone. Read-outs that look alike come from different tables or passages of the source.
Columns and labels:
[1] = target: T1, 5-HT-1A serotonin receptor (Rattus norvegicus, UniProt P19327); experiment: ex vivo inhibition of 5-HT-1A serotonin receptor binding (3H-8-OH-DPAT, hippocampal membranes)
T1 construct: Hippocampal tissue is dissected and homogenized on ice in 40 vols of buffer; from tissue; host or cells: rat hippocampus, washed membrane homogenate
T1 sequence (P19327 1-422): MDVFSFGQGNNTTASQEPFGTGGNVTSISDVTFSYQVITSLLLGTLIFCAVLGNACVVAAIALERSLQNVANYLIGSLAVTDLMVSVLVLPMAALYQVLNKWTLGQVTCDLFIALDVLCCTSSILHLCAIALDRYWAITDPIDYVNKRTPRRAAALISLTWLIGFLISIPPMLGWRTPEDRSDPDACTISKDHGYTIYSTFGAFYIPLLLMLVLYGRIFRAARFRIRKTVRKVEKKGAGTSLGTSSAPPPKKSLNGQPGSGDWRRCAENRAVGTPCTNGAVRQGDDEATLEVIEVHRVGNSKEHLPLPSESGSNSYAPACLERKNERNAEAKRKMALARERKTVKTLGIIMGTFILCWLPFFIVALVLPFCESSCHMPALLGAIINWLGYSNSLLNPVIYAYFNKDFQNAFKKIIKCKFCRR
Experimental: The assay is carried out as follows:
Several groups of rats (4-6 rats/group) are injected with test compound or the appropriate vehicle. Thirty minutes later, unless otherwise noted, rats are decapitated and their brains removed. Various brain regions are dissected and rapidly frozen and maintained at -70° C. until used.
The homogenate is then centrifuged at 20,000 rpm (RC5-B; 50,000 g) and the supernatant discarded. […] The pellet is then resuspended in 100 vols of buffer B (50 mM Tris HCl, pH=7.7 containing 0.1% ascorbate, 10 μM pargyline and 4 mM CaCl2) and sonicated. An aliquot is taken for protein determination by the Lowry method and the remainder stored frozen at -70° C. until used.
Specific binding obtained in vehicle-treated rats is compared to that obtained in animals receiving a single or various doses of test compound and expressed as percent of control.

[2] = target: limbic D-2 dopamine receptor (Rattus norvegicus, UniProt P61169); experiment: biochemical; conditions: read-out: Limbic D-2 Binding, inhibition
limbic D-2 dopamine receptor, sequence (P61169 whole entry): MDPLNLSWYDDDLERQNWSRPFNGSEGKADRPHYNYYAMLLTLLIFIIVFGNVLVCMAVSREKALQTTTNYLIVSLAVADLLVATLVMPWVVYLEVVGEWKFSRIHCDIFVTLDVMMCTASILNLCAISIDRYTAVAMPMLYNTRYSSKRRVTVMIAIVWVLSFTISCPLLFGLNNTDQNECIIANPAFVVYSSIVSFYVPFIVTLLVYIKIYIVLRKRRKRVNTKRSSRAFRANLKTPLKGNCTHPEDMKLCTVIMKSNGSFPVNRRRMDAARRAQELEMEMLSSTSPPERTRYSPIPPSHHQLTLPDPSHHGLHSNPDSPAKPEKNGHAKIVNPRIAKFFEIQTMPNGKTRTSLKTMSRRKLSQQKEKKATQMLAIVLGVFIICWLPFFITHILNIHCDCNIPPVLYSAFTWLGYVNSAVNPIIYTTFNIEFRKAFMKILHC

[3] = test system: conditioned avoidance responding in rats; experiment: conditioned avoidance (shelf-jump response) test; conditions: i.p.; Table 1
Experimental: A test designed to determine the potential antipsychotic activity of the compounds of the invention is the conditioned avoidance (shelf-jump response) test.
This test is carried out as follows:
Male CD rats (Charles River) maintained at approximately 400-450 gm body weight are used. […] A moveable wall, controlled by a motor, determines whether the rat has access to the shelf at any time during the experiment. The experimental chamber also contains a house light and sonalert. A steel grid floor in the main chamber is wired for presentation of electric shock. Each trial consists of a fifteen-second warning tone (conditioned stimulus), continuing for an additional fifteen seconds accompanied by electric shock (unconditioned stimulus). A response (jumping onto the exposed shelf of the upper chamber) occurring during the initial fifteen-second warning tone is considered an avoidance response, while a response occurring during shock delivery is considered an escape response. Trials are presented on a fixed interval schedule of one minute. The session consists of thirty-six trials. Animals are run twice weekly with control sessions always preceding a drug run, and with at least one day intervening. Compounds are administered i.p. or p.o. at appropriate pre-treatment times to a minimum of five rats at each dose level over a range of doses.
The following experimental parameters are recorded by computer: (1) the number of avoidance responses, (2) the number of escape responses, and (3) the number of trials in which no response occurred.
Response counts are summed over all subjects at a given dose. […] This number is expressed as a percentage of the total trials. Control performance is arbitrarily assigned a value of 100% for avoidance and the dose calculated to produce a 50% block in avoidance responding (AB50) is obtained from a dose-effect regression line fitted by the method of least squares. Potential anti-psychotic compounds suppress avoidance responding and increase escape responding.

[4] = Table 3, rat hippocampal tissue, 3H-8-OH-DPAT, read-out: Inhibition Constant (Ki)

SMILES	Ki [1, 4]	inhibition at 1 µM [2]	Active at [3]	Ki [1]
O=C1N(CCCCN2CCN(c3ncccn3)CC2)C(=O)C23C4C=CC(C4)C12C1C=CC3C1 (centres unmarked) [Example 1, 1,4,5,8-Tetrahydro-10-[4-[4-(2-pyrimidinyl-1-piperazinyl]butyl]-4a,8a-(methaniminomethano)-1,4:5,8-dimethanonaphthalene-9,11-dione, dihydrochloride, hemihydrate]	14 nM	53%	40 mg/kg	–
O=C1N(CCCCN2CCN(c3ncccn3)CC2)C(=O)C23C4CCC(C4)C12C1CCC3C1 (centres unmarked) [Example 4, Octahydro-10-[4-[4-(2-pyrimdinyl)-1-piperazinyl]butyl]-4a,8a-(methaniminomethano)-1,4:5,8-dimethanonaphthalene-9,11-dione, dihydrochloride]	7 nM	–	40 mg/kg	–
O=C1N(CCCCN2CCN(c3cnccn3)CC2)C(=O)C23C4C=CC(C4)C12C1C=CC3C1 (centres unmarked) [Example 3, 1,4,5,8-Tetrahydro-10-[4-[4-(2-pyrazinyl)-1-piperazinyl]butyl]-4a,8a-(methaniminomethano)-1,4:5,8-dimethanonaphthalene-9,11-dione, dihydrochloride, sesquihydrate]	–	63%	40 mg/kg	12 nM

— patent publication US4804751A, “Polycyclic hydrocarbon succinimides with psychotropic activity” (American Home Products Corporation, priority 1987, dated 1989)
